One series relates to GLXMA GM_W336. Briefly: Post-emergence greenhouse treatment, visual rating of effect on W336 transgenic (HPPD inhibitor tolerant) soybean. Conditions: for Effect (%): GLXMA GM_W336. Type of series: in vivo. The method, then:
(§1) The soybeans were grown under the same conditions as described above. The following three varieties were used in the tests:
(§2) 1) W336—Transgenic soybean plants comprising a chimeric gene encoding a W336 mutant HPPD protein of Pseudomonas fluorescens (U.S. Pat. No. 6,245,968) fused to the optimized transit peptide for chloroplast targeting (U.S. Pat. No. 5,510,471), and under the control of the 35S CaMV promoter (Odell et al., 1985, Nature 313: 810-812) fused to the 5′ enhancer sequence of TEV (Carrington and Freed, 1990, J. Virol. 64: 1590-1597), with as 3′ transcript termination and polyadenylation region that of the CaMV 35S gene (Sanfacon et al., 1991, Genes & Development 5:141-149), abbreviated as “W336 soybean plants” herein. 2) MERLIN—conventional 3) PROTINA—conventional
(§3) Two sets of soybeans reaching different growth stages at application time were prepared: one up to growth stage BBCH 11 (1-2 leaf stage) and the other up to BBCH 13 (3-4 leaf stage). Both soybean sets were treated at the same time (together with the weeds) but they were evaluated separately.
(§4) The applications were performed by post emergence treatments on the planted pots using a spray volume of 300 L water per hectare. The herbicides were applied alone and in combination as in the tables below.
(§5) The trial was conducted in the greenhouse ensuring optimal growing conditions.
(§6) The herbicidal effects were assessed 14 and 24 days following application by visual ratings comparing treated and untreated plants (0%=no effect to 100%=complete die-off).
(§7) The visual ratings are used to calculate interactions between treatments alone and combination treatments according to S. R. Colby, Weeds 15, pages 20 to 22 (1967).

A further series has as its system GLXMA Protina. Description: Post-emergence greenhouse treatment, visual rating of effect on conventional soybean PROTINA. To be noted: for Effect (%): GLXMA Protina. Format: in vivo. The protocol: as §1, §2, §3, §4, §5, §6, §7
The test system of another series is GLXMA Merlin. Description: Post-emergence greenhouse treatment, visual rating of effect on conventional soybean MERLIN. Conditions: for Effect (%): GLXMA Merlin, assessment 24 d. Type of series: in vivo. The protocol:
as §1, §2, §3, §4, §5, §6, §7

In a further series the test system is BRAPP. Description: Post-emergence greenhouse treatment, visual rating of herbicidal effect. Type of series: in vivo, Brachiaria platyphylla. Conditions: for Effect (%): BRAPP. The protocol:
(§8) Seeds of grass and broadleaf weeds were sown in pots (diameter: 8 cm) filled with a sandy loam soil. For the herbicide post-emergent treatment, the weeds were grown under optimal conditions up to a growth stage of BBCH 11 (1-2 leaf stage) to 14 (3-4 leaf stage) depending on species. The following weeds were used:
as §4, §5, §6, §7

Another series concerns SETFA. The series is described as above. Format: in vivo, Setaria faberi. To be noted: 1-2 leaf. The protocol: as §8, §4, §5, §6, §7
In the next series the test system is SETVI. The series is described as above. To be noted: 1-2 leaf; for Effect (%): SETVI, assessment 24 d; for Effect: 24 d. Type of series: in vivo, Setaria viridis. The protocol:
as §8, §4, §5, §6, §7

The test system of the next series is SORHA. The series is described as above. Type of series: in vivo, Sorghum halepense. The protocol:
as §8, §4, §5, §6, §7

For a further series, the system named is BIDPI. Described as above. Format: in vivo, Bidens pilosa. The method, then:
as §8, §4, §5, §6, §7

Another series concerns POLCO. Described as above. Type of series: in vivo, Polygonum convolvulus. To be noted: for Effect (%): POLCO. The protocol:
as §8, §4, §5, §6, §7

Another series deals with EPHHL. Described as above. Format: in vivo, Euphorbia heterophylla. The method, then:
as §8, §4, §5, §6, §7

The subject of another series is PHBPU. The series is described as above. Type of series: in vivo, Pharbitis purpurea. The protocol: as §8, §4, §5, §6, §7
Setting [1] is: 1-2 leaf, assessment 24 d, (A1) alone 2.5 g a.i./ha.
The mark [2] stands for this setting: 1-2 leaf, assessment 24 d, (A1) alone 5 g a.i./ha.
The mark [3] stands for this setting: 1-2 leaf, assessment 24 d, (A1) alone 10 g a.i./ha.
The mark [4] stands for this setting: 3-4 leaf, assessment 14 d, (A1) alone 5 g a.i./ha.
[5] abbreviates: 1-2 leaf, 14 d, 20 g a.i./ha alone.
The mark [6] stands for this setting: 1-2 leaf, 24 d, 5 g a.i./ha alone.
Where [7] appears, read: 1-2 leaf, 24 d, 10 g a.i./ha alone.
Where [8] appears, read: 1-2 leaf, 24 d, 20 g a.i./ha alone.
Where [9] appears, read: 3-4 leaf, 14 d, 5 g a.i./ha alone.
[10] abbreviates: 3-4 leaf, 14 d, 20 g a.i./ha alone.

The structures appear in SMILES notation.

As for `CS(=O)(=O)c1ccc(C(=O)C2C(=O)CCCC2=O)c(Cl)c1COCC(F)(F)F` [(A1), 2-{2-chloro-4-mesyl-3-[(2,2,2-trifluoroethoxy)methyl]benzoyl}cyclohexane-1,3-dione], the “Effect (%)” value with GLXMA GM_W336 (setting [1]) was determined as 15%; with GLXMA GM_W336 (setting [2]), 15%; in the series with GLXMA GM_W336 (setting [3]) it was 15%; with GLXMA GM_W336 (setting [4]), 20%; in the series on GLXMA Protina (setting [1]), 65%; in the series with GLXMA Protina (setting [2]), 75%. Moreover, the “Effect (%)” value came to 55% in the series on GLXMA Protina (setting [4]); 75% in the series with GLXMA Merlin (1-2 leaf, (A1) alone 5 g a.i./ha); 80% in the series on GLXMA Merlin (1-2 leaf, (A1) alone 10 g a.i./ha); 10% in the series with BRAPP (setting [2]); 10% in the series on BRAPP (setting [3]); 25% with BRAPP (setting [4]). For the same compound, the “Effect (%)” value is 0% in the series with SETFA (SETFA, assessment 24 d, (A1) alone 2.5 g a.i./ha); 40% in the series on SETVI ((A1) alone 5 g a.i./ha); 40% with SETVI ((A1) alone 10 g a.i./ha); 20% in the series with SORHA (SORHA, 1-2 leaf, assessment 24 d, (A1) alone 5 g a.i./ha); 10% with BIDPI (BIDPI, 3-4 leaf, assessment 14 d, (A1) alone 5 g a.i./ha); 0% in the series on POLCO (setting [1]). The “Effect (%)” value worked out at 0% in the series on POLCO (setting [2]) and 10% with POLCO (setting [4]).
`CS(=O)(=O)c1ccc(C(=O)C2C(=O)CCCC2=O)c([N+](=O)[O-])c1` [(A2), 2-(4-mesyl-2-nitrobenzoyl)cyclohexane-1,3-dione]: the Effect is on record as 20% in the series with GLXMA GM_W336 (setting [5]); 15% with GLXMA GM_W336 (setting [6]); 15% with GLXMA GM_W336 (setting [7]); 25% in the series with GLXMA GM_W336 (setting [8]); 15% with GLXMA GM_W336 (setting [9]); 25% with GLXMA GM_W336 (setting [10]). Moreover, the Effect with GLXMA Protina (setting [5]) was found to be 45%; with GLXMA Protina (setting [6]), 15%; in the series with GLXMA Protina (setting [7]) it was 20%; in the series with GLXMA Protina (setting [8]), 40%; in the series with GLXMA Protina (setting [10]) it was 50%; in the series on GLXMA Merlin (setting [9]) it was 30%. The Effect with BRAPP (setting [5]) stood at 50%; in the series with BRAPP (setting [7]), 25%; with BRAPP (setting [8]), 35%; with SETVI (5 g a.i./ha alone), 0%; in the series with SORHA (setting [6]), 0%; with SORHA (setting [9]), 0%. Also, the Effect in the series with SORHA (setting [10]) was found to be 15%; in the series on BIDPI (setting [8]) it was 20%; in the series on EPHHL (setting [5]), 30%; with EPHHL (setting [7]) it was 10%; in the series on EPHHL (setting [8]) it was 10%; in the series on PHBPU (setting [7]) it was 75%. Also, the Effect amounted to 20% with POLCO (setting [7]), 20% in the series with POLCO (setting [9]) and 65% in the series on POLCO (setting [10]).
As to `CS(=O)(=O)c1cc(C(F)(F)F)ccc1C(=O)c1cnoc1C1CC1` [(A4), (5-cyclopropyl-1,2-oxazol-4-yl)(α,α,α-trifluoro-2-mesyl-p-tolyl)methanone], the Effect came out at 10% in the series with GLXMA GM_W336 (1-2 leaf, 24 d, 20 g a.i./ha); 10% in the series with GLXMA GM_W336 (3-4 leaf, 14 d, 10 g a.i./ha); 75% in the series with GLXMA Protina (1-2 leaf, 24 d, 20 g a.i./ha); 35% in the series with GLXMA Protina (3-4 leaf, 14 d, 10 g a.i./ha); 15% in the series on BRAPP (3-4 leaf, 14 d, 10 g a.i./ha); 10% with SETVI (20 g a.i./ha). The Effect in the series with SORHA (1-2 leaf, 24 d, 20 g a.i./ha) amounted to 40%; in the series with PHBPU (3-4 leaf, 14 d, 10 g a.i./ha), 40%.
Take `Cc1c(C(=O)c2cnn(C)c2O)ccc(S(C)(=O)=O)c1C1=NOCC1` [(A5), [3-(4,5-dihydro-1,2-oxazol-3-yl)-4-mesyl-o-tolyl](5-hydroxy-1-methylpyrazol-4-yl)methanone]: the Effect in the series with GLXMA GM_W336 (1-2 leaf, 24 d, 1.5 g a.i./ha) is listed as 15%; in the series on GLXMA GM_W336 (3-4 leaf, 14 d, 3 g a.i./ha) it was 30%; in the series on GLXMA GM_W336 (3-4 leaf, 24 d, 3 g a.i./ha), 30%; in the series on GLXMA Protina (3-4 leaf, 14 d, 3 g a.i./ha) it was 50%; with GLXMA Protina (3-4 leaf, 24 d, 3 g a.i./ha), 50%; in the series on GLXMA Merlin (1-2 leaf, 24 d, 1.5 g a.i./ha), 55%. Also, the Effect is 30% in the series on SETFA (24 d, 1.5 g a.i./ha); 15% with SORHA (3-4 leaf, 14 d, 3 g a.i./ha); 10% in the series on SORHA (3-4 leaf, 24 d, 3 g a.i./ha); 25% in the series on BIDPI (3-4 leaf, 14 d, 3 g a.i./ha); 10% in the series on BIDPI (3-4 leaf, 24 d, 3 g a.i./ha); 30% in the series on PHBPU (1-2 leaf, 24 d, 1.5 g a.i./ha).
With `COCCOCc1nc(C(F)(F)F)ccc1C(=O)C1=C(O)C2CCC(C2)C1=O` (stereo not drawn) [(A6), 4-hydroxy-3-{2-[(2-methoxyethoxy)methyl]-6-(trifluoromethyl)-3-pyridylcarbonyl}bicyclo[3.2.1]oct-3-en-2-one], the Effect came out at 5% in the series on GLXMA GM_W336 (1-2 leaf, 14 d, 5 g a.i./ha); 25% with GLXMA GM_W336 (3-4 leaf, 14 d, 10 g a.i./ha); 30% in the series with GLXMA GM_W336 (3-4 leaf, 14 d, 20 g a.i./ha); 25% with GLXMA GM_W336 (3-4 leaf, 24 d, 10 g a.i./ha); 30% in the series on GLXMA GM_W336 (3-4 leaf, 24 d, 20 g a.i./ha); 50% in the series with GLXMA Protina (1-2 leaf, 14 d, 5 g a.i./ha). The Effect is recorded as 45% in the series on GLXMA Protina (3-4 leaf, 14 d, 10 g a.i./ha); 60% with GLXMA Protina (3-4 leaf, 14 d, 20 g a.i./ha); 50% in the series with GLXMA Merlin (3-4 leaf, 24 d, 10 g a.i./ha); 50% in the series with GLXMA Merlin (3-4 leaf, 24 d, 20 g a.i./ha); 15% in the series on BRAPP (3-4 leaf, 14 d, 10 g a.i./ha); 25% in the series on BRAPP (3-4 leaf, 14 d, 20 g a.i./ha). In addition, the Effect turned out to be 15% in the series with BRAPP (3-4 leaf, 24 d, 20 g a.i./ha); 15% with SETFA (14 d, 5 g a.i./ha); 0% in the series with SORHA (1-2 leaf, 14 d, 5 g a.i./ha); 30% in the series with BIDPI (3-4 leaf, 24 d, 20 g a.i./ha); 40% in the series with EPHHL (3-4 leaf, 24 d, 10 g a.i./ha); 50% in the series on POLCO (3-4 leaf, 14 d, 10 g a.i./ha). In addition, the Effect was 50% with POLCO (3-4 leaf, 14 d, 20 g a.i./ha) and 35% in the series on POLCO (3-4 leaf, 24 d, 10 g a.i./ha).

For the origin of these results see patent US9974306B2, “Herbicidal combinations for tolerant soybean cultures” (priority 2012, dated 2018).
